Reference: publication PMC8955854, “The Peptide Hormone CNMa Influences Egg Production in the Mosquito Aedes aegypti” (Insects, 2022)
Like-named read-outs stand apart in the source and are kept apart here. Positions of bridges follow the written chain, without caps; N, C: chain ends. Residues, ends and D or L forms follow the SMILES beside them. No end group written: not given here.

Tests used:
AeCNMaR-1a (AAEL024199) = AeCNMaR-1a (AAEL024199) (Aedes aegypti, UniProt A0A6I8U3V2); experiment: Receptor activation, aequorin luminescence in CHO-K1 aeq cells expressing AeCNMaR-1a; type: cell-based
AeCNMaR-1a (AAEL024199), sequence (A0A6I8U3V2 entry or part of it): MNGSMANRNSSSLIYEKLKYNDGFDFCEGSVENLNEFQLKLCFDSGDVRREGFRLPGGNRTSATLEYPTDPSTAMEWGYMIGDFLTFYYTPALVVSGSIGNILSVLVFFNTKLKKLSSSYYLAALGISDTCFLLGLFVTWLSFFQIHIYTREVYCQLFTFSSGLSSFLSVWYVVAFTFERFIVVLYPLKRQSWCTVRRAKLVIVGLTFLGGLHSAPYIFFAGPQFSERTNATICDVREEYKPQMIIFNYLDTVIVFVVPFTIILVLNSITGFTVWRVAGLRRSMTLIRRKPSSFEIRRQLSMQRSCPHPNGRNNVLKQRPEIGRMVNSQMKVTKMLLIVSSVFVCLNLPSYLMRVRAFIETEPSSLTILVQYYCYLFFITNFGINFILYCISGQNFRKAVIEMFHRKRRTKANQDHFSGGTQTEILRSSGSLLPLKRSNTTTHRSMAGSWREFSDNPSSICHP
From the text: The CNMa peptide was synthesized and HPLC purified (>90% purity) by Royobiotechs (Shanghai, China) based on the published sequence of the AeCNMa peptide sequence. Both the amidated (YMSLCHFKLCNMa) and the non-amidated (YMSLCHFKLCNM) were produced with a disulfide bridge between cysteines 5 and 10. The complete coding sequence of the two putative Ae. aegypti CNMa receptors (VectorBase genes AAEL024199 and AAEL018316, which we henceforth refer to as AeCNMaR-1a and AeCNMaR-1b, respectively) were commercially synthesized (Integrated DNA Technologies) and subsequently subcloned into a pcDNA3.1+ mammalian expression vector [24]. A Chinese hamster ovary cell line stably expressing the calcium-dependent bioluminescent protein aequorin (CHO-K1 aeq) was grown in Dulbecco’s modified eagles medium: nutrient F12 (DMEM:F12) media containing 10% heat-inactivated fetal bovine serum (FBS; Wisent, St. Bruno, QC, Canada), 200 μg/mL geneticin, and an antimycotic-antibiotic mixture as described previously. When cells reached 80–90% confluency, they were transfected using Lipofectamine 3000 transfection reagent following manufacturer recommendations (Life Technologies, Burlington, ON, Canada) to transiently express a mammalian construct in pcDNA3.1+ containing either of the two candidate CNMa receptors or mCherry (pcDNA3.1+ mCherry was a gift from Scott Gradia, Addgene plasmid #30125), the latter of which served as a negative control for the receptor functional assay. After 48 h following transfection, CHO-K1 aeq cells were harvested by dislodging from culture flasks using Dulbecco’s PBS containing EDTA and subsequently resuspended in receptor assay media.
Other Ae. aegypti peptides used in this study included “capability” (CAPA)-1 (GPTVGLFAFPRV-NH2), CAPA-2 (pQGLVPFPRV-NH2), AedaeCAPA-pyrokinin (PK) 1 (AGNSGANSGMWFGPRL-NH2), adipokinetic/corazonin-like peptide (ACP; pQVTFSRDWNA-NH2), adipokinetic hormone (AKH) (pQLTFTPSW-NH2), and corazonin (CRZ; pQTFQYSRGWTN-NH2). Serial dilutions of the peptide stocks were prepared in bovine serum albumin (BSA) assay media (DMEM:F12 media + 0.1% BSA + 1× antibiotic-antimycotic) to test concentrations ranging from 10 pM to 50 μM. Single concentrations of the various peptides were loaded into individual wells of white 96-well luminescence plates (Greiner Bio-One, Frickenhausen, Germany) with each peptide concentration tested in quadruplicate. CHO-K1 aeq cells expressing either of the two AeCNMa receptors or mCherry were prepared for the functional assay, as described above, and injected into each well of the 96-well luminescence plates by an automated injector unit integrated with the Synergy 2 Multi-Mode Microplate Reader (BioTek, Winooski, VT, USA). The kinetic luminescent response was measured for 10 s immediately following the application of the cells into the wells containing the different peptide treatments or the negative (i.e., BSA media alone) or positive (i.e., 50 μM ATP) controls as described previously. Data was assembled in Microsoft Excel and then analyzed in GraphPad Prism 7.02 (GraphPad Software, San Diego, CA, USA) where the dose–response curves from multiple biological replicates were used to determine the half maximal effective concentrations (EC50).

AeCNMaR-1b (AAEL018316) = AeCNMaR-1b (AAEL018316) (Aedes aegypti, UniProt A0A1S4G7J8); experiment: Receptor activation, aequorin luminescence in CHO-K1 aeq cells expressing AeCNMaR-1b; type: cell-based
AeCNMaR-1b (AAEL018316), sequence (A0A1S4G7J8 entry or part of it): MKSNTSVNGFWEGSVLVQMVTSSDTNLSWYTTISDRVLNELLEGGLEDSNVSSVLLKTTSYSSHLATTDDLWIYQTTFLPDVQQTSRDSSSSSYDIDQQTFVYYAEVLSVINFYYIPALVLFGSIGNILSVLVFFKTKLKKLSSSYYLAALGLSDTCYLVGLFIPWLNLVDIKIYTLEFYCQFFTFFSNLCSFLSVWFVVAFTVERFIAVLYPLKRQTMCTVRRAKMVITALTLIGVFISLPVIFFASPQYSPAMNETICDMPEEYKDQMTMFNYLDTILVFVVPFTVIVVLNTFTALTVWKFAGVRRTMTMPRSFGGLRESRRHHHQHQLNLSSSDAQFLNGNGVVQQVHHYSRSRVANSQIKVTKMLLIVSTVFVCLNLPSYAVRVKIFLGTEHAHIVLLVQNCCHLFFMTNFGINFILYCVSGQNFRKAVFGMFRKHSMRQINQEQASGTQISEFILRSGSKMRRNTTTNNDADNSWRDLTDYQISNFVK
From the text: The CNMa peptide was synthesized and HPLC purified (>90% purity) by Royobiotechs (Shanghai, China) based on the published sequence of the AeCNMa peptide sequence. Both the amidated (YMSLCHFKLCNMa) and the non-amidated (YMSLCHFKLCNM) were produced with a disulfide bridge between cysteines 5 and 10. The complete coding sequence of the two putative Ae. aegypti CNMa receptors (VectorBase genes AAEL024199 and AAEL018316, which we henceforth refer to as AeCNMaR-1a and AeCNMaR-1b, respectively) were commercially synthesized (Integrated DNA Technologies) and subsequently subcloned into a pcDNA3.1+ mammalian expression vector [24]. A Chinese hamster ovary cell line stably expressing the calcium-dependent bioluminescent protein aequorin (CHO-K1 aeq) was grown in Dulbecco’s modified eagles medium: nutrient F12 (DMEM:F12) media containing 10% heat-inactivated fetal bovine serum (FBS; Wisent, St. Bruno, QC, Canada), 200 μg/mL geneticin, and an antimycotic-antibiotic mixture as described previously. […]
Other Ae. aegypti peptides used in this study included “capability” (CAPA)-1 (GPTVGLFAFPRV-NH2), CAPA-2 (pQGLVPFPRV-NH2), AedaeCAPA-pyrokinin (PK) 1 (AGNSGANSGMWFGPRL-NH2), adipokinetic/corazonin-like peptide (ACP; pQVTFSRDWNA-NH2), adipokinetic hormone (AKH) (pQLTFTPSW-NH2), and corazonin (CRZ; pQTFQYSRGWTN-NH2). […] Single concentrations of the various peptides were loaded into individual wells of white 96-well luminescence plates (Greiner Bio-One, Frickenhausen, Germany) with each peptide concentration tested in quadruplicate. CHO-K1 aeq cells expressing either of the two AeCNMa receptors or mCherry were prepared for the functional assay, as described above, and injected into each well of the 96-well luminescence plates by an automated injector unit integrated with the Synergy 2 Multi-Mode Microplate Reader (BioTek, Winooski, VT, USA). The kinetic luminescent response was measured for 10 s immediately following the application of the cells into the wells containing the different peptide treatments or the negative (i.e., BSA media alone) or positive (i.e., 50 μM ATP) controls as described previously. Data was assembled in Microsoft Excel and then analyzed in GraphPad Prism 7.02 (GraphPad Software, San Diego, CA, USA) where the dose–response curves from multiple biological replicates were used to determine the half maximal effective concentrations (EC50).

Molecule	EC50 (AeCNMaR-1a (AAEL024199))	EC50 (AeCNMaR-1b (AAEL018316))	EC50 (AeCNMaR-1a (AAEL024199); CHO-K1 aeq cells, transient AeCNMaR-1a, luminescence over 10 s, 10 pM to 50 μM, quadruplicate, normalized to 50 µM AeCNMa, BSA assay media, read-out: EC50)	EC50 (AeCNMaR-1b (AAEL018316); CHO-K1 aeq cells, transient AeCNMaR-1b, luminescence over 10 s, 10 pM to 50 μM, quadruplicate, normalized to 50 µM AeCNMa, BSA assay media, read-out: EC50)
CSCC[C@H](NC(=O)[C@H](CC(N)=O)NC(=O)[C@@H]1CSSC[C@H](NC(=O)[C@H](CC(C)C)NC(=O)[C@H](CO)NC(=O)[C@H](CCSC)NC(=O)[C@@H](N)Cc2ccc(O)cc2)C(=O)N[C@@H](Cc2c[nH]cn2)C(=O)N[C@@H](Cc2ccccc2)C(=O)N[C@@H](CCCCN)C(=O)N[C@@H](CC(C)C)C(=O)N1)C(=O)O [AeCNM, YMSLCHFKLCNM] (H-YMSLCHFKLCNM-OH; disulfide 5-10)	46.3 nM	125 nM		
YMSLCHFKLCNMa (disulfide) (YMSLCHFKLCNM-NH2; disulfide 5-10; N-terminus assumed; SMILES CSCC[C@H](NC(=O)[C@H](CC(N)=O)NC(=O)[C@@H]1CSSC[C@H](NC(=O)[C@H](CC(C)C)NC(=O)[C@H](CO)NC(=O)[C@H](CCSC)NC(=O)[C@@H](N)Cc2ccc(O)cc2)C(=O)N[C@@H](Cc2c[nH]cn2)C(=O)N[C@@H](Cc2ccccc2)C(=O)N[C@@H](CCCCN)C(=O)N[C@@H](CC(C)C)C(=O)N1)C(N)=O) [AeCNMa, Ae. aegypti CNMa peptide, amidated, HPLC purified (>90% purity)]			5.17 nM	51.8 nM
